Test results as given in paper PMC8292404 (British Journal of Cancer, 2021).
Read-outs that look alike come from different tables or passages of the source.

Assays:
[1] = system: aHCC with MET alteration; design: method as in PMID 31853265; conditions: cited from earlier work
[2] = system: patients with sorafenib pretreated advanced hepatocellular carcinoma (aHCC); test: Phase 1b dose escalation ('3 + 3'): DLTs and adverse events; assay type: in vivo
Text: (§1) In both study phases, eligible patients were ≥18 years old with aHCC, Child–Pugh Class A liver function score, Eastern Cooperative Oncology Group performance status 0 or 1, and measurable disease defined by Response Evaluation Criteria In Solid Tumors (RECIST) v1.1. […] Exclusion criteria included any prior systemic anti-cancer treatment for aHCC (besides sorafenib) and presence of symptomatic or untreated brain metastases. Full inclusion and exclusion criteria are shown in Supplementary Table 1.
(§2) Additional patients were enrolled at the RP2D.
(§3) The primary endpoint in Phase 1b was incidence of dose-limiting toxicities (DLTs) during Cycle 1. Details of DLTs are defined in Supplementary Table 3. Pharmacokinetics (PK) endpoints, including Cmax, and area under the concentration–time curve over the dosing interval at steady state (AUCτ,ss), were evaluated at Cycle 1, Day 15 as a secondary endpoint in Phase 1b. Selected efficacy measures were evaluated as secondary endpoints in Phase 1b.
In Phase 2, the primary endpoint was progression-free survival (PFS) status after 12 weeks of treatment, as assessed by the investigator per RECIST v1.1. Secondary endpoints included TTP, time to symptomatic progression, objective response rate (ORR), disease control rate (DCR) (all investigator-assessed and per RECIST v1.1), PFS per modified RECIST v1.1 (investigator-assessed), OS and biological response (defined as a decrease in AFP >20%). As sensitivity analyses, PFS and TTP were also evaluated by independent review. Safety was assessed via reporting of adverse events (AEs), graded according to National Cancer Institute Common Terminology and Criteria for Adverse Events v4.0.
(§4) Continuous variables, including PK data, were summarised using descriptive statistics; qualitative variables were summarised by means of counts and percentages.
Patients who were replaced during Cycle 1 were excluded from the analysis set.

[3] = system: sorafenib pretreated advanced hepatocellular carcinoma (aHCC); test: Phase 1b: tumour response and survival (RECIST v1.1, investigator); assay type: in vivo, human; conditions: for Best overall response CR / Best overall response Not evaluable / Best overall response PD / Best overall response PR / Best overall response SD: investigator RECIST v1.1
Text: This was an open-label, multicentre, integrated, Phase 1b/2 trial conducted across Europe and the US in patients with aHCC who had failed sorafenib treatment.
as §1
In Phase 2, patients were required to have MET overexpression, based on assessment of a tumour biopsy sample collected after sorafenib discontinuation and within 28 days before the first day of study treatment. MET overexpression was defined as moderate (2+) or strong (3+) staining for MET in ≥50% of tumour cells by immunohistochemistry (IHC) using the pharmDx anti-total MET (D1C2) rabbit monoclonal antibody (Dako, Agilent Technologies, Inc., Santa Clara, CA) (Supplementary Table 2). MET status was not required for Phase 1b, but was determined retrospectively in a biopsy sample collected within 28 days before the first day of study treatment. MET amplification status was determined for patients in Phase 1b and 2 using formalin-fixed paraffin-embedded tumour material by fluorescent in situ hybridisation. MET amplification was defined as MET:CEP7 ratio ≥2 or mean gene copy number ≥5.
as §2, §3
In both phases, tumour assessments were performed per RECIST v1.1 and modified RECIST[29] v1.1 on Day 1 of every second cycle from Cycle 3 to 13, and Day 1 of every fourth cycle thereafter. Exploratory endpoints included biomarkers of MET pathway activity (including MET amplification status).
as §4
Tumour response (best overall response, ORR, DCR) and biological response were summarised, along with corresponding two-sided exact Clopper–Pearson 90% confidence intervals (CIs). Kaplan–Meier estimates of median PFS, TTP, time to symptomatic progression and OS are presented, along with 90% CIs (calculated using the two-sided exact Clopper–Pearson method). All statistical analyses were performed using SAS® Software version 9.4 (Statistical Analysis System, SAS-Institute, Cary, North Carolina, US).

[4] = Phase 1b: pharmacokinetics at Cycle 1, Day 15; conditions: human, in vivo
Experimental: as §2, §3, §4

[5] = moderate (Child–Pugh B) hepatic impairment relative to control patients; cited from earlier work
[6] = Phase 1b, 300 mg cohort (n = 4)
[7] = Phase 1b, 500 mg cohort (n = 13)

## CNC(=O)c1ccc(-c2cnc3ncc(Cc4ccc5ncccc5c4)n3n2)cc1F [capmatinib]
[1]; 3/10 patients, MET IHC 3+, or 2+ with MET gene copy number ≥5
  objective response: 30%
[1]; 3/30 patients, MET H-score ≥50%, MET:CEP7 ratio ≥2 or MET gene copy number ≥5
  objective response: 10%

## CN1CCC(COc2cnc(-c3cccc(Cn4nc(-c5cccc(C#N)c5)ccc4=O)c3)nc2)CC1 [tepotinib]
[2]
  patients with at least one Grade ≥3 treatment-related AE: 23.5%
  patients with at least one treatment-related AE: 82.4%
  peripheral oedema, AE of any cause: 76.5%
[2]; 300 and 500 mg QD cohorts
  dose-limiting toxicities (DLTs) during Cycle 1: no DLTs
[2]; N = 17
  AEs of any cause that led to death: 23.5%
  patients with Grade ≥3 events of any cause: 58.8%
  permanently discontinued treatment due to AEs of any cause: 17.6%
[2]; N = 17 (peripheral oedema)
  permanently discontinued treatment due to treatment-related AEs: 5.9%
[3]; [6]
  disease control: 50%
  objective responses: 50%
[3]; [7]
  disease control: 30.8%
  objective responses: 0%
[3]; Phase 1b, MET IHC 0
  DCR: 100.0%
[3]; Phase 1b, MET IHC 0 (n = 1)
  objective responses: 0%
[3]; Phase 1b, MET IHC 1+
  DCR: 40.0%
[3]; Phase 1b, MET IHC 1+ (n = 5)
  objective responses: 20%
[3]; Phase 1b, MET IHC 2+
  DCR: 42.9%
[3]; Phase 1b, MET IHC 2+ (n = 7)
  objective responses: 14.3%
[3]; Phase 1b, MET IHC 3+
  DCR: 0%
[3]; Phase 1b, MET IHC 3+ (n = 2)
  objective responses: 0.0%
[3]; Phase 1b, N = 17
  Median TTP: 2.1 months
  median OS: 7.2 months
  median PFS: 1.5 months
  patients who had died at the time of the analysis: 82.4%
  patients with disease progression at the time of the analysis: 70.6%
[3]; Phase 1b, overall (N = 17)
  disease control: 35.3%
[3]; Phase 1b, two of 17 patients, both 300 mg
  best overall response partial response (PR): 11.8%
[3]; Phase 1b 300 mg/day (n = 4)
  Best overall response CR: 0 n (%)
  Best overall response Not evaluable: 1 (25.0) n (%)
  Best overall response PD: 1 (25.0) n (%)
  Best overall response PR: 2 (50.0) n (%)
  Best overall response SD: 0 n (%)
[3]; Phase 1b 500 mg/day (n = 13)
  Best overall response CR: 0 n (%)
  Best overall response Not evaluable: 1 (7.7) n (%)
  Best overall response PD: 8 (61.5) n (%)
  Best overall response PR: 0 n (%)
  Best overall response SD: 4 (30.8) n (%)
[3]; Phase 1b Total (N = 17)
  Best overall response CR: 0 n (%)
  Best overall response Not evaluable: 2 (11.8) n (%)
  Best overall response PD: 9 (52.9) n (%)
  Best overall response PR: 2 (11.8) n (%)
  Best overall response SD: 4 (23.5) n (%)
[4]; 300 mg QD, geometric mean (geometric CV 18.2%)
  AUC: 15.2 µg·h/mL
[4]; 300 mg QD, geometric mean (geometric CV 19.6%)
  Cmax: 0.734 µg/mL
[4]; 500 mg QD, geometric mean (geometric CV 44.6%)
  Cmax: 0.677 µg/mL
[4]; 500 mg QD, geometric mean (geometric CV 50.4%)
  AUC: 12.9 µg·h/mL
[5]
  reduction in exposure, AUC from time 0 to infinity: 12%
  reduction in exposure, Cmax: 29%
